Results: paper PMC7484762 (2020)

Tests used:
[1] = test system: 79-nt RNA ending at A79 (RNA, riboswitch) UAUCAGUUAUAUGACUGACGGAACGUGGAAUUAACCACAUGAAGUAUAACGAUGACAAUGCCGACCGUCUGGGCGAACA; test: ITC; settings: 150 mM KCl, 10 mM MgCl2; 50 mM HEPES-KOH pH 7.4, 37 °C; apparent; exact value in Supplementary Figure 1b
[2] = test system: WT (ligated F. ulcerans ZTP riboswitch with 3' tether, annealed to biotin-DNA-Cy5) (DNA:RNA, riboswitch) UAUCAGUUAUAUGACUGACGGAACGUGGAAUUAACCACAUGAAGUAUAACGAUGACAAUGCCGACCGUCUGGGCGAACAAGCCUAGAUUGUCGGUUCAUUAGCGGUAUUCCGGAAUUGCCGUAAUCGCG/CGCGATTACGGCAATTCCGGAATACCGCTAATG; test: smFRET; settings: 150 mM KCl, 10 mM MgCl2; 50 mM HEPES-KOH pH 7.4; thermally refolded with 1 mM ZMP, ~10% bound; vectorially folded 38%
[3] = test system: 92-94A (ligated, with 3' tether, annealed to biotin-DNA-Cy5) (DNA:RNA, riboswitch) UAUCAGUUAUAUGACUGACGGAACGUGGAAUUAACCACAUGAAGUAUAACGAUGACAAUGCCGACCGUCUGGGCGAACAAGCCUAGAUUGUAAAUUCAUUAGCGGUAUUCCGGAAUUGCCGUAAUCGCG/CGCGATTACGGCAATTCCGGAATACCGCTAATG; test: smFRET; settings: 150 mM KCl, 10 mM MgCl2; 50 mM HEPES-KOH pH 7.4; thermally refolded; partially responsive
[4] = test system: 81-83, 92-94A (ligated, with 3' tether, annealed to biotin-DNA-Cy5) (DNA:RNA, riboswitch) UAUCAGUUAUAUGACUGACGGAACGUGGAAUUAACCACAUGAAGUAUAACGAUGACAAUGCCGACCGUCUGGGCGAACAAAAAUAGAUUGUAAAUUCAUUAGCGGUAUUCCGGAAUUGCCGUAAUCGCG/CGCGATTACGGCAATTCCGGAATACCGCTAATG; test: smFRET; settings: 150 mM KCl, 10 mM MgCl2; 50 mM HEPES-KOH pH 7.4; thermally refolded; majority binds
[5] = test system: Δterm (ligated F. ulcerans ZTP aptamer with 3' tether, annealed to biotin-DNA-Cy5) (DNA:RNA, riboswitch) UAUCAGUUAUAUGACUGACGGAACGUGGAAUUAACCACAUGAAGUAUAACGAUGACAAUGCCGACCGUCUGGGCGUUCAUUAGCGGUAUUCCGGAAUUGCCGUAAUCGCG/CGCGATTACGGCAATTCCGGAATACCGCTAATG; test: smFRET titration (TIRF), Langmuir fit; settings: 150 mM KCl, 10 mM MgCl2, 50 mM HEPES-KOH pH 7.4, thermally refolded, Pmax 71%, 1.5 μM after vectorial folding
[6] = test system: 81-83A (ligated, with 3' tether, annealed to biotin-DNA-Cy5) (DNA:RNA, riboswitch) UAUCAGUUAUAUGACUGACGGAACGUGGAAUUAACCACAUGAAGUAUAACGAUGACAAUGCCGACCGUCUGGGCGAACAAAAAUAGAUUGUCGGUUCAUUAGCGGUAUUCCGGAAUUGCCGUAAUCGCG/CGCGATTACGGCAATTCCGGAATACCGCTAATG; test: smFRET after vectorial folding (Rep-X); settings: 150 mM KCl, 10 mM MgCl2; 50 mM HEPES pH 7.4; larger bound fraction than WT

## NC(=O)c1ncn([C@@H]2O[C@H](COP(=O)(O)O)[C@@H](O)[C@H]2O)c1N
[1]
  Kd: ~ 1 μM
[2]
  binding: weak
[3]
  binding: weak
[4]
  binding: yes
[5]
  apparent KD: 1.3 µM
[6]
  binding: yes
